Experimental data as given in US6649814B2, “Cytochrome P450 monooxygenases” (Syngenta Participations AG, priority 1997, dated 2003).

Tests used:
cytochrome P450OX [1] = molecular target: T1, cytochrome P450OX (Sorghum bicolor, UniProt O48958); assay: reconstitution of cytochrome P450OX activity in lipid micelles; type: biochemical; parameters: from tissue; host or cells: microsomes of etiolated Sorghum bicolor seedlings; details: 10 mM, in place of NADPH
T1 sequence (O48958 2-531): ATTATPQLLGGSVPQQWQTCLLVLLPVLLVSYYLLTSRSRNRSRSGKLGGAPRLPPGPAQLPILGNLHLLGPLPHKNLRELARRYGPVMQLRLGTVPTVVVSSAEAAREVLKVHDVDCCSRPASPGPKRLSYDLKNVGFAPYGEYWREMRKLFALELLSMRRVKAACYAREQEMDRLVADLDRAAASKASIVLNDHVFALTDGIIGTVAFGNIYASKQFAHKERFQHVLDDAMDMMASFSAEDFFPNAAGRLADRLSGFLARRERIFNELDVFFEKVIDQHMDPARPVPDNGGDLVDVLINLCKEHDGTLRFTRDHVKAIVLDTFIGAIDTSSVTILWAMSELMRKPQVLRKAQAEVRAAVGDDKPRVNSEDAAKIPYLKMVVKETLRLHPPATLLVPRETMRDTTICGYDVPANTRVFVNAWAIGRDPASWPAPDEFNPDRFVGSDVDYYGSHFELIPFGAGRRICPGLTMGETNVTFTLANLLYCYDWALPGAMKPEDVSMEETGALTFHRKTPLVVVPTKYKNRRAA
From the text: (§1) Reconstitution of the enzyme activity of a microsomal cytochrome P450 is accomplished by inserting the cytochrome P450 enzyme and the corresponding NADPH cytochrome P450 oxidoreductase into lipid micelles. A mixture of lipids can be used but in the case of cytochrome P450OX, dilauroylphosphatidylcholine (DLPC) provides the best enzymatic activity. The number of correctly formed complexes of cytochrome P450OX and NADPH cytochrome P450 oxidoreductase are a rate limiting factor. Excess amounts of the oxidoreductase and concentrated enzyme solutions are utilized to ensure a sufficient number of active complexes.
(§2) A functionally reconstituted enzyme is obtained using the following components: […]
(§3) The complete reaction mixtures contain: 3 μl of isolated, recombinant P450TYR (6 pmol, heterologously expressed in E. coli and isolated as in Halkier et al, Arch. Biochem. Biophys. 322: 369-377, 1995), 10 μl of isolated and dialyzed P450OX (approximately 0.4 pmol), 5 μl of NADPH-P450 oxidoreductase (0.075 U), 1 μl of partially purified UDPG glucosyl transferase from Sorghum, 5 μl of DLPC (10 mg/ml in 50 mM Kpi (pH7)), 0.25 μl of [U-^14C]-tyrosine ([…], 443 mCi/mmol, Amersham), 3 μl of UDPG (33 mg/ml in 50 mM Kpi (pH7)), and 3 μl of castanospermin (2 mM in 50 mM Kpi (pH7)). […] The first set of reaction mixtures is analyzed using the ethyl acetate/toluene solvent as in example 4.5. […]

[2] = system: glucosidase activity present in the UDPG glucosyltransferase extract; assay: inhibition of glucosidase activity in the in vitro dhurrin reconstitution; type: biochemical, Sorghum; details: 3 μl of 2 mM in 30 μl reaction mixture
Procedure: as §3, with “4.5. The second set of reaction mixtures is analyzed using a solvent system consisting of ethyl acetate/acetone/dichloromethane/methanol/water (20/15/6/5/4, v/v/v/v/v) in order to achieve separation of the hydrophilic product dhurrin from tyrosine and from the hydrophobic intermediates.” for “4.5.”
The combined use of isolated P450TYR and P450OX in reconstitution experiments with radiolabeled tyrosine as substrate results in the production of p-hydroxyphenylacetonitrile and p-hydroxybenzaldehyde. […] Due to the lability of p-hydroxymandelonitrile its conversion to dhurrin is experimentally detected as a disappearance of p-hydroxybenzaldehyde. […]

cytochrome P450OX [3] = molecular target: T1, cytochrome P450OX; assay: reconstitution of cytochrome P450OX activity in lipid micelles; type: biochemical; parameters: 10 μl of the cytochrome P450OX (approximately 0.4 pmol) solution; from tissue; host or cells: microsomes of etiolated Sorghum bicolor seedlings
From the text: as §1, §2, §3

P450OX = molecular target: T2, P450OX (Sorghum bicolor, UniProt O48958); assay: substrate binding spectra of isolated P450OX; details: for substrate binding spectrum: upon substrate addition
T2 construct: from tissue; host or cells: microsomes of etiolated Sorghum bicolor seedlings
T2 sequence (O48958 1-531): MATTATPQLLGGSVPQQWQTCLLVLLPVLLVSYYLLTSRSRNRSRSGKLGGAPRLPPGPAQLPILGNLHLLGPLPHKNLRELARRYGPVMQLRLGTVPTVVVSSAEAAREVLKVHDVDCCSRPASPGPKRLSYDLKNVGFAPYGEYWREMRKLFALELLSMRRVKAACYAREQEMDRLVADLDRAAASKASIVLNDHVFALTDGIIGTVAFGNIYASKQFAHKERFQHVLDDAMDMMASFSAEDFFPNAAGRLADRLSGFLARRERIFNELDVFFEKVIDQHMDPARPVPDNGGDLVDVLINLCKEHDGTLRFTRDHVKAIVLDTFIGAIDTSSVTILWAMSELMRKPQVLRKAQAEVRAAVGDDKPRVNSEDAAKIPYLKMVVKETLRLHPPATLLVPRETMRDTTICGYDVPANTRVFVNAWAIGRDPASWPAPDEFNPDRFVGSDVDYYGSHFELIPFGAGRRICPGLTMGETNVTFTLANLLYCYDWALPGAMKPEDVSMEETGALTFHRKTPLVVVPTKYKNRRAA
Procedure: The identification of P450OX as a multifunctional enzyme converting p-hydroxyphenylacetaldoxime to p-hydroxymandelonitrile with p-hydroxyphenylacetonitrile as an intermediate stimulated us to investigate the substrate binding ability of P450OX. […] The amplitude increased in size upon incubation and reached a stable maximum after approximately 45 min.
The isolated P450OX produces a reverse Type I substrate binding spectrum upon incubation with p-hydroxyphenylacetaldoxime. The extinction coefficient E420-390 corresponding to a complete transition from one spin state to the other is 130 mM^−1 cm^−1. In the substrate binding spectra obtained, the maximal amplitudes are approximately twice as large as theoretically calculated even when assuming a complete shift from a high spin to a low spin state. […] Alternatively, the P420 form of P450OX is able to bind the oxime and thus contributes to the size of the substrate binding spectrum formed. The latter possibility could explain why maximal amplitudes are only obtained after prolonged incubation.

microsomal system = details: the substance is the substrate, cited from earlier work; for Km: read-out: Km for p-hydroxymandelonitrile production
P450TYR (CYP79) = molecular target: T3, P450TYR (CYP79) (Sorghum bicolor, UniProt Q43135); details: upon in vitro reconstitution; cited from earlier work
T3 sequence (Q43135 1-558): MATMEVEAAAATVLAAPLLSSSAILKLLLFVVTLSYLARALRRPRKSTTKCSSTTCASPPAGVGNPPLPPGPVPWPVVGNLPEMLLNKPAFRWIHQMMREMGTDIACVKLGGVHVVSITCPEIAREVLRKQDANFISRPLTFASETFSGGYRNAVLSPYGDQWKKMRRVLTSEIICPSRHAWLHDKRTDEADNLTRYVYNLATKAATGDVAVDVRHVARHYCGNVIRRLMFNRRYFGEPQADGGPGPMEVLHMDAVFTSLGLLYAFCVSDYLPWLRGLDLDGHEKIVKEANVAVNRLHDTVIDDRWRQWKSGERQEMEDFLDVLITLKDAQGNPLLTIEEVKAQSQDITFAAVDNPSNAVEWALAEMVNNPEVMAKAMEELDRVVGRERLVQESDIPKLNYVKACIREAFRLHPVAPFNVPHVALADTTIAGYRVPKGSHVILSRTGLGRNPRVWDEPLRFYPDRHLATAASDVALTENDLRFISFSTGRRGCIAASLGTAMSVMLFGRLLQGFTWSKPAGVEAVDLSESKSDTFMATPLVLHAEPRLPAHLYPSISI

Molecule: O=S([O-])S(=O)[O-].[Na+].[Na+] [Sodium dithionite, reference compound]
- support of metabolism of p-hydroxyphenylacetaldoxime by P450OX (cytochrome P450OX [1]): does not support metabolism

Molecule: O[C@H]1[C@H](O)[C@@H](O)CN2CC[C@H](O)[C@H]12 [castanospermine]
- inhibition of glucosidase activity [2]: efficiently inhibited

Molecule: ON=CCc1ccc(O)cc1 [p-hydroxyphenylacetaldoxime]
- metabolism of the oxime as substrate of P450OX (cytochrome P450OX [3]): fully metabolized
- incubation time until the amplitude of the binding spectrum reached a stable maximum (P450OX): approximately 45 min
- substrate binding spectrum (P450OX): reverse type I spectrum
- Km (microsomal system): 50 µM
- Vmax for p-hydroxymandelonitrile production (microsomal system): 400 nmoles mg protein^−1 h^−1

Molecule: N#CCc1ccc(O)cc1 [p-hydroxyphenylacetonitrile]
- substrate binding spectrum (P450OX): No substrate binding spectrum was obtained
- Km (microsomal system): 100 µM
- Vmax for p-hydroxymandelonitrile production (microsomal system): 50 nmoles mg protein^−1 h^−1

Molecule: ON=CCc1ccccc1 [phenylacetaldoxime]
- metabolism of the oxime as substrate of P450OX (cytochrome P450OX [3]): can metabolize

Molecule: N[C@@H](Cc1ccc(O)cc1)C(=O)O [tyrosine]
- Km (microsomal system): 30 µM
- Vmax for p-hydroxymandelonitrile production (microsomal system): 145 nmoles mg protein^−1 h^−1

B1: P450TYR: cytochrome P450 of Sorghum bicolor that converts tyrosine to p-hydroxyphenylacetaldehyd oxime (protein, UniProt Q43135 2-558, looked up)
Tyrosine N-monooxygenase: ATMEVEAAAATVLAAPLLSSSAILKLLLFVVTLSYLARALRRPRKSTTKCSSTTCASPPAGVGNPPLPPGPVPWPVVGNLPEMLLNKPAFRWIHQMMREMGTDIACVKLGGVHVVSITCPEIAREVLRKQDANFISRPLTFASETFSGGYRNAVLSPYGDQWKKMRRVLTSEIICPSRHAWLHDKRTDEADNLTRYVYNLATKAATGDVAVDVRHVARHYCGNVIRRLMFNRRYFGEPQADGGPGPMEVLHMDAVFTSLGLLYAFCVSDYLPWLRGLDLDGHEKIVKEANVAVNRLHDTVIDDRWRQWKSGERQEMEDFLDVLITLKDAQGNPLLTIEEVKAQSQDITFAAVDNPSNAVEWALAEMVNNPEVMAKAMEELDRVVGRERLVQESDIPKLNYVKACIREAFRLHPVAPFNVPHVALADTTIAGYRVPKGSHVILSRTGLGRNPRVWDEPLRFYPDRHLATAASDVALTENDLRFISFSTGRRGCIAASLGTAMSVMLFGRLLQGFTWSKPAGVEAVDLSESKSDTFMATPLVLHAEPRLPAHLYPSISI
- turn-over number (P450TYR (CYP79)): 230 min⁻¹
